In the supplement of paper PMC10307832:

What was measured:
Test in all cases: relative viability (nuclei count vs DMSO), 5 days (fraction); higher = more cells survive
[1] = compound: C1=CC=C2C(=C1)C=CC(=C2SSC3=C(C=CC4=CC=CC=C43)O)O [IPA-3] + N=C(N)NC(=N)NCCc1ccccc1 [Phenformin] (partner 250 µM)
How it was run: (§1)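 Medians of duplicate plates are given as relative viability. That measure is the nuclei count in treated wells divided by the count in vehicle wells. Counts were taken on 4× images of lung cancer cell lines in 1536-well plates, 5 days after pin-tool dosing the day after seeding with one drug alone or a fixed anchor-drug dose plus five library-drug doses (not always all listed) in √10 steps.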

[2] = compound: Cc1ccc(-n2nc(C(C)(C)C)cc2NC(=O)Nc2ccc(OCCN3CCOCC3)c3ccccc23)cc1 [Doramapimod] + CCNC(=O)c1noc(-c2cc(C(C)C)c(O)cc2O)c1-c1ccc(CN2CCOCC2)cc1 [Luminespib] (partner 0.01 µM)
How it was run: as §1

[3] = compound: Cc1ccc(-n2nc(C(C)(C)C)cc2NC(=O)Nc2ccc(OCCN3CCOCC3)c3ccccc23)cc1 [Doramapimod] + C[C@@H](Oc1cc(-c2cnn(C3CCNCC3)c2)cnc1N)c1c(Cl)ccc(F)c1Cl [Crizotinib] (partner 1 µM)
How it was run: as §1

[4] = compound: Cn1c(Nc2ccc(C(F)(F)F)cc2)nc2cc(Oc3ccnc(-c4ncc(C(F)(F)F)[nH]4)c3)ccc21 [RAF265] + CS(=O)(=O)CCNCc1ccc(-c2ccc3ncnc(Nc4ccc(OCc5cccc(F)c5)c(Cl)c4)c3c2)o1 [Lapatinib] (partner 2 µM)
How it was run: as §1

| Cell Line | relative viability ([1]; first compound 0.2 µM) | relative viability ([1]; first compound 0.6325 µM) | relative viability ([1]; first compound 2 µM) | relative viability ([1]; first compound 6.325 µM) | relative viability ([1]; first compound 20 µM) | relative viability ([2]; first compound 0.02 µM) | relative viability ([2]; first compound 0.06325 µM) | relative viability ([2]; first compound 0.2 µM) | relative viability ([2]; first compound 0.6325 µM) | relative viability ([2]; first compound 2 µM) | relative viability ([3]; first compound 0.02 µM) | relative viability ([3]; first compound 0.06325 µM) | relative viability ([3]; first compound 0.2 µM) | relative viability ([3]; first compound 0.6325 µM) | relative viability ([3]; first compound 2 µM) | relative viability ([4]; first compound 0.01 µM) | relative viability ([4]; first compound 0.03162 µM) | relative viability ([4]; first compound 0.1 µM) | relative viability ([4]; first compound 0.3162 µM) | relative viability ([4]; first compound 1 µM) |
| --- | --- | --- | --- | --- | --- | --- | --- | --- | --- | --- | --- | --- | --- | --- | --- | --- | --- | --- | --- | --- |
| NCI-H2405 | 0.437 | 0.386 | 0.418 | 0.389 | 0.489 | 0.639 | 0.591 | 0.794 | 0.885 | 0.522 | 0.822 | 0.826 | 0.877 | 0.996 | 0.798 | 1.09 | 1.08 | 0.924 | 0.999 | 0.607 |
| NCI-H3122 | 0.442 | 0.38 | 0.389 | 0.31 | 0.362 | 0.11 | 0.0996 | 0.108 | 0.0726 | 0.092 | 0.268 | 0.267 | 0.223 | 0.256 | 0.266 | 1.04 | 1.11 | 1.07 | 0.953 | 0.98 |
| PC-3 [JPC-3] | 0.462 | 0.47 | 0.495 | 0.499 | 0.489 | 0.736 | 0.656 | 0.694 | 0.768 | 0.671 | 1 | 1 | 1.06 | 1.08 | 0.955 | 0.423 | 0.471 | 0.475 | 0.38 | 0.36 |
| PC-14 | 0.614 | 0.521 | 0.572 | 0.497 | 0.801 | 0.146 | 0.196 | 0.18 | 0.159 | 0.152 | 0.896 | 0.913 | 0.906 | 0.855 | 0.853 | 0.339 | 0.331 | 0.403 | – | 0.383 |
| RERF-LC-KJ | 0.5 | 0.409 | 0.509 | 0.441 | 0.462 | 1.35 | 1.16 | 1.24 | 1.36 | 1.2 | 0.88 | 0.888 | 0.826 | 0.789 | 0.823 | 0.837 | 0.776 | 0.827 | 0.784 | 0.679 |
| SK-LU-1 | 0.775 | 0.54 | 0.499 | 0.509 | 0.588 | 0.208 | 0.204 | 0.172 | 0.218 | 0.186 | 0.915 | 0.929 | 0.909 | 0.83 | 0.92 | 0.685 | 0.669 | 0.669 | 0.61 | 0.34 |
| SK-MES-1 | 0.635 | 0.625 | 0.667 | 0.573 | 0.533 | 0.725 | 0.563 | 0.694 | 0.836 | 0.601 | 1.01 | 0.977 | 0.933 | 0.917 | 0.887 | 0.468 | 0.449 | 0.366 | 0.349 | 0.269 |
| SW 1573 | 0.465 | 0.35 | 0.401 | 0.342 | 0.17 | 0.235 | 0.181 | 0.207 | 0.692 | 0.185 | 0.827 | 0.613 | 0.646 | 0.75 | 0.743 | 1.15 | 1.18 | 1.18 | 1.04 | 0.824 |
